Measurements from US20080057010A1, “METHOD FOR SKIN CARE” (NULIV SCIENCE LTD., priority 2006, published 2008).

Columns and labels:
collagen III [1] = test: Collagen III expression and secretion in human HDF cells (western blot); type: cell-based; details: relative to 0 = 1.00
Protocol: Primary human dermal fibroblasts cells (HDF) were purchased from Cascade Biologics (Portland, Oreg., USA) and cultured in medium 106 supplemented with 10% fetal bovine serum (FBS), 100 IU/mL penicillin, 100 μg/mL of streptomycin. The cells from passages 4 to 10 were used for this study. Culture medium was replaced every other day. After confluence, the cells were subcultured following trypsinization. For subcultures cells were harvested after brief treatment with 0.1% trypsin/EDTA solution and seeded at a dilution of 1:10. The cells were seeded at 1×10^5 cells in 6-well culture plate for 24 h before treated with astragalosides or crude extracts, such as butanol fraction and water insoluble fraction of Astragalus membranaceus for the indicated time periods. Control cultures were maintained in medium supplemented with vehicle (dimethyl sulfoxide, DMSO, 0.1%). No growth and differentiation effects of DMSO were observed under these culture conditions.
(§1) The cells were treated with pure compounds such as astragaloside I (AS 1), astragaloside II (AS2), astragaloside III (AS3), astragaloside IV (AS4), astragaloside VI (AS6), isoastragaloside I (isoAS1), isoastragaloside II (isoAS2), and cycloastragenol 6-O-β-D-glucopyranose (AA) at concentrations of 0-10 μM. Alternatively, the cells were also treated with the crude extracts, such as butanol fraction and water insoluble fraction of Astragalus membranaceus at concentrations of 0, 1, 10, and 40 μg/mL. The cells were treated with the indicated compounds or the extracts for 24 h before harvested for analysis of collagen I and III expressed in the whole cell extract or secreted into the culture medium.
(§2) Western blot analysis was carried out on both of cultured medium and cell lysates. The cells were plated on 6-cm dishes at a density of 1×10^6 cells/dish for 24 h prior to treatment with indicated concentrations of astragalus triterpenoids as indicated for another 48 h. The conditioned culture mediums were then centrifuged, 2-fold concentrated and collected for assay of collagens and MMPs secreted into the culture medium. The cells were washed and lysed in 0.2 mL of lysis buffer (1% NP-40, 50 mM Tris-HCl, pH 7.4, 180 mM NaCl, 1 mM EDTA, 1 mM PMSF, 1 mM NaF, 10 mM Na3VO4) for 30 min at 4° C. After centrifuging at 17500 g for 15 min, the supernatants of cell lysate were also collected. Protein concentration of the samples were measured using the bicinchoninic acid (BCA) protein assay kit according to the manufacturer's protocol (Pierce, Rockford, Ill., USA). Equal amount of protein samples of concentrated conditioned medium (100 μg) or cell lysate supernatants (50 μg) were mixed with an appropriate volume of 4×SDS sampling buffer and separated by 8% SDS-PAGE gel. The protein bands separated in the SDS-PAGE gel were blotted onto a polyvinylidene fluoride (PVDF) membrane. The blotted PVDF membrane was washed twice and blocked in freshly prepared Tris-buffered saline (TBS) containing 0.1% Tween-20 and 7% skim milk (TBST) for 2 h at room temperature. The PVDF membrane was then incubated with either antibodies against collagen I and III or the housekeeping protein α-tubulin (Santa Cruz Biotechnology, Santa Cruz, Calif.) for 18 h at 4° C. Horseradish peroxidase-conjugated anti-goat antibody was used as secondary antibody. Signals were visualized by an enhanced chemiluminescence kit (Clonetech, Palo Alto, Calif., USA) followed by exposure to X-ray films.

collagen III [2] = test: Collagen III expression and secretion in human HaCaT cells (western blot); type: cell-based; details: relative to 0 = 1.00
Protocol: The Spontaneously transformed human keratinocyte cell lines HaCaT cells were grown at 37° C. in a humidified incubator under 5% CO2 and 95% air in culture medium such as Dulbecco Modified Eagle Medium (DMEM) supplemented with 10% Fetal Bovine Serum (FBS), 100 IU/mL penicillin, 100 μg/mL of streptomycin, 2 mM sodium pyruvate and 1% Non-Essential Amino Acids (NEAA). The culture medium was replaced every other day. After confluence, the cells were subcultured following trypsinization. For subcultures cells were harvested after brief treatment with 0.1% trypsin/ethylenediaminetetraacetic acid (EDTA) solution and seeded at a dilution of 1:10. Cells between passages 12 and 45 were used for studies. The cells were seeded and incubated for 24 h before treated with the astragalosides for 24 h. Control cultures were maintained in medium supplemented with vehicle (dimethyl sulfoxide (DMSO) 0.1%). No growth and differentiation effects of DMSO were observed under these culture conditions.
as §1, §2
The collagen III was also over-expressed in the human HaCaT cells treated with different doses (0.01, 0.1 and 1 μM) of the astragalosides, such as AS1, AS2 and AS3. Similarly, the collagen III was over-expressed in the human HaCaT cells treated with various dosages (1, 10 and 40 μg/mL) of the crude extract as shown in Table 1B. On the other hand, the amount of collagen III secreted into the medium was measured to determine the effect on cellular release of collagen III. […]

HaCaT cells = test: Glucosamine uptake assay in HaCaT cells; type: cell-based, human; details: 0.1 μM; for Uptake rate (glucosamine): 48 h treatment; for Percentage (%) of control glucosamine uptake: relative to control
Protocol: In glucosamine uptake test, HaCaT cells were seeded into 24-well plate at a density of 3×10^4 cells/well and cultured for 24 h. The cells were then treated in the absence (solvent control) or presence of various concentrations of astragalosides for another 48 h. The treated cells were then washed twice with PBS and incubated in glucose and serum free medium (GSFM). After 2 h, the cells were replaced with fresh GSFM containing 0.2 μCi of [^14C]-Glucosamine (American Radiolabelled Chemicals Inc, ARC, St. Louis, Mo., USA). At the designated time interval, the cells were washed twice with GSFM containing cold glucosamine and then lysed in 200 μL 2% SDS. Cell lysates were centrifuged at 15000 g for 15 min. Intracellular uptaken glucosamine was determined by transferring 10 μL of the cell lysate to filter-bottemed UniFilter plates (Perkim-Elmer) and counted. Protein concentration of the samples was measured using the BCA protein assay kit as described above. Glucosamine accumulated in the cells was calculated and normalized to protein concentration and uptake rate was expressed as counts per minute per microgram of cell protein (cpm/min/μg).

Row | Compound | Collagen III in medium (collagen III [1]; 0.01 μM) | Collagen III in medium (collagen III [1]; 0.1 μM) | Collagen III in medium (collagen III [1]; 1 μM) | Collagen III in cell (collagen III [2]; 0.01 μM) | Collagen III in cell (collagen III [2]; 0.1 μM) | Collagen III in cell (collagen III [2]; 1 μM) | Uptake rate (glucosamine) (HaCaT cells) | Percentage (%) of control glucosamine uptake (HaCaT cells) | Collagen III in medium (collagen III [2]; 0.01 μM) | Collagen III in medium (collagen III [2]; 0.1 μM) | Collagen III in medium (collagen III [2]; 1 μM) | Collagen III in cell (collagen III [1]; 0.01 μM) | Collagen III in cell (collagen III [1]; 0.1 μM) | Collagen III in cell (collagen III [1]; 1 μM)
1 | CC(=O)O[C@H]1[C@H](O[C@H]2CC[C@]34C[C@]35CC[C@]3(C)[C@@H]([C@@]6(C)CC[C@@H](C(C)(C)O)O6)[C@@H](O)C[C@@]3(C)[C@@H]5C[C@H](O[C@@H]3O[C@H](CO)[C@@H](O)[C@H](O)[C@H]3O)[C@H]4C2(C)C)OC[C@@H](O)[C@@H]1O [AS2, astragaloside II] | 1.26 | 1.74 | 0.94 | 1.36 | 1.44 | 1.49 | 0.9561 ± 0.0918 CPM/μg protein | 116.00% | – | – | – | – | – | –
2 | CC(C)(O)[C@@H]1CC[C@](C)([C@H]2[C@@H](O)C[C@@]3(C)[C@@H]4C[C@H](O)[C@H]5C(C)(C)[C@@H](O[C@@H]6OC[C@@H](O)[C@H](O)[C@H]6O[C@@H]6O[C@H](CO)[C@@H](O)[C@H](O)[C@H]6O)CC[C@@]56C[C@@]46CC[C@]23C)O1 [AS3, astragaloside III] | 2.18 | 1.79 | 1.51 | 0.86 | 1.22 | 2.12 | 1.0129 ± 0.0371 CPM/μg protein | 122.90% | – | – | – | – | – | –
3 | CC(C)(O)[C@@H]1CC[C@](C)([C@H]2[C@@H](O)C[C@@]3(C)[C@@H]4C[C@H](O[C@@H]5O[C@H](CO)[C@@H](O)[C@H](O)[C@H]5O)[C@H]5C(C)(C)[C@@H](O[C@@H]6OC[C@@H](O)[C@H](O)[C@H]6O)CC[C@@]56C[C@@]46CC[C@]23C)O1 [AS4, astragaloside IV] | – | – | – | – | – | – | 0.8931 ± 0.0918 CPM/μg protein | 108.36% | 0.79 | 1.13 | 1.16 | – | – | –
4 | CC(C)(O)[C@@H]1CC[C@](C)([C@H]2[C@@H](O)C[C@@]3(C)[C@@H]4C[C@H](O[C@@H]5O[C@H](CO)[C@@H](O)[C@H](O)[C@H]5O)[C@H]5C(C)(C)[C@@H](O[C@@H]6OC[C@@H](O)[C@H](O)[C@H]6O[C@@H]6O[C@H](CO)[C@@H](O)[C@H](O)[C@H]6O)CC[C@@]56C[C@@]46CC[C@]23C)O1 [AS6, astragaloside VI] | – | – | – | – | – | – | 0.8471 ± 0.0278 CPM/μg protein | 102.78% | 4.55 | 4.27 | 3.86 | 1.65 | 1.37 | 0.95
5 | CC(=O)O[C@H]1[C@H](O[C@H]2CC[C@]34C[C@]35CC[C@]3(C)[C@@H]([C@@]6(C)CC[C@@H](C(C)(C)O)O6)[C@@H](O)C[C@@]3(C)[C@@H]5C[C@H](O[C@@H]3O[C@H](CO)[C@@H](O)[C@H](O)[C@H]3O)[C@H]4C2(C)C)OC[C@@H](OC(C)=O)[C@@H]1O [isoAS1, isoastragaloside I] | – | – | – | – | – | – | 0.9589 ± 0.0665 CPM/μg protein | 116.34% | 3.32 | 4.41 | 6.53 | – | – | –
6 | CC(=O)O[C@@H]1[C@@H](O)[C@H](O[C@H]2CC[C@]34C[C@]35CC[C@]3(C)[C@@H]([C@@]6(C)CC[C@@H](C(C)(C)O)O6)[C@@H](O)C[C@@]3(C)[C@@H]5C[C@H](O[C@@H]3O[C@H](CO)[C@@H](O)[C@H](O)[C@H]3O)[C@H]4C2(C)C)OC[C@H]1O [isoAS2, isoastragaloside II] | 1.00 | 1.07 | 1.18 | – | – | – | 0.9226 ± 0.0668 CPM/μg protein | 111.94% | – | – | – | – | – | –
7 | astragaloside I [AS1] | 1.38 | 1.19 | 1.77 | 1.29 | 1.59 | 2.63 | 1.0482 ± 0.0560 CPM/μg protein | 127.18% | – | – | – | 1.16 | 1.08 | 1.18
